Columns and labels:
NPR-A isoform 1 = experiment: Whole-cell cGMP assay (competitive ELISA), DLD-1 cells transfected with NPR-A isoform 1 alone; type: cell-based, rat; conditions: IBMX 0.5 mM 30 min, then peptide 30 min
Excerpt: (§1) A plasmid containing rat NPR-A in a pCMV-4 backbone, gifted by Dr. Ruey-Bing Yang (Academia Sinica), was used as the NPR-A template. All three receptor isoforms plasmids were created by modifying the NPR-A sequence in the template plasmid using Site-Directed Mutagenesis (SDM) following the protocol from the Q5® Site-Directed Mutagenesis kit. All plasmids were cloned and expanded in NEB 5 α competent cells. DNA sequencing was done to confirm the success of the SDM. Primers used to clone isoform 1 are 5’—tga ccc tga gtg ggg gca acc ttg tgg c—3’ and 5’—gcc aca agg ttg ccc cca ctc agg gtc a—3’. primers used to clone isoform 2 are 5’ –gac ggg tgc ctt cag gcc ctg cca ggt tgt cct gaa cta ta—3’ and 5’ –tat agt tca gga caa cct ggc agg gcc tga agg cac ccg tc—3’. Primers used to clone isoform 3 are 5’—gtg gag gat ggc ctg gca gtg aca gag act—3’ and 5’—agt ctc tgt cac tgc cag gcc atc ctc cac—3’.
(§2) DLD-1 cells were cultured in complete RPMI-1640 medium supplemented with 10% HI-FBS and 1% Penicillin–Streptomycin (P/S). Cells were sub-cultured every 3 days using trypsinization. […]
(§3) Cells were transfected following the transfection protocol above and incubated for another 16 h overnight. […] Total protein content of three wells were determined using Bicinchoninic acid assay and used for normalizing across the different 24-well plates. Expression of the receptors in 3 wells were determined using Western blotting.

NPR-A isoform 2 = experiment: Whole-cell cGMP assay (competitive ELISA), DLD-1 cells transfected with NPR-A isoform 2 alone; type: cell-based, rat; conditions: IBMX 0.5 mM 30 min, then peptide 30 min
Excerpt: as §1, §2, §3

NPR-A isoform 3 = experiment: Whole-cell cGMP assay (competitive ELISA), DLD-1 cells transfected with NPR-A isoform 3 alone; type: cell-based, rat; conditions: IBMX 0.5 mM 30 min, then peptide 30 min
Excerpt: as §1, §2, §3

[1] = system: WT NPR-A co-transfected with isoform 1; experiment: Whole-cell cGMP assay, DLD-1 cells co-transfected with WT NPR-A and isoform 1; type: cell-based, rat; conditions: peptide 30 min, ELISA, triplicates
Excerpt: as §1, §2, §3

[2] = system: WT NPR-A co-transfected with isoform 2; experiment: Whole-cell cGMP assay, DLD-1 cells co-transfected with WT NPR-A and isoform 2; type: cell-based, rat; conditions: peptide 30 min, ELISA, triplicates
Excerpt: as §1
(§4) DLD-1 cells were cultured in complete RPMI-1640 medium supplemented with 10% HI-FBS and 1% Penicillin–Streptomycin (P/S). Cells were sub-cultured every 3 days using trypsinization. DLD-1 cells (0.2 million) were seeded per well in 24-well plates to attain near 70% confluent before transfection was performed following the manufacturer’s protocol. Plasmids of interest was incubated with lipofectamine 3000 in a 1:1 ratio before the mixture was added to the cells. For single transfection, 0.8 μ g of the plasmid of interest was used. For co-transfection, the NPR-A WT plasmid was fixed at 0.8 μ g and the receptor isoforms were mixed with the WT plasmid according to their given percentages. For 1% co-transfection, 0.8 μ g of NPR-A WT plasmid was mixed with 0.00808 μ g of receptor isoforms. […]
as §3

[3] = system: WT NPR-A co-transfected with isoform 3; experiment: Whole-cell cGMP assay, DLD-1 cells co-transfected with WT NPR-A and isoform 3; type: cell-based, rat; conditions: peptide 30 min, ELISA, triplicates
Excerpt: as §1, §4, §3

[4] = system: WT NPR-A co-transfected with receptor isoforms; experiment: Whole-cell cGMP assay, DLD-1 cells co-transfected with WT NPR-A and isoforms (statements over more than one isoform); type: cell-based, rat; conditions: 1% co-transfection of isoform 1 and 2
Excerpt: as §1, §2, §3

NPR-A [5] = conditions: compared with the vasodilatory analogue (DRD-ANP); cited from earlier work
Excerpt: We evaluated the roles of three distinct amino acid residues found within the K-ring and the C-terminal and identified the residues that are responsible for these functions. […] The separation of diuretic and hemodynamic bioactivity in DRD-ANP and D ...

NPR-A [6] = conditions: ANP compared with BNP; cited from earlier work
Excerpt: They interact with three NP receptors (NPRs), namely NPR-A, NPR-B and NPR-C. Lack of NPs or their receptors have been associated with hypertension and heart failure.

CC[C@H](C)[C@@H]1NC(=O)[C@H](CCCNC(=N)N)NC(=O)[C@H](CC(=O)O)NC(=O)[C@H](CCSC)NC(=O)[C@H](CCCNC(=N)N)NC(=O)CNC(=O)CNC(=O)[C@H](Cc2ccccc2)NC(=O)[C@@H](NC(=O)[C@H](CO)NC(=O)[C@H](CO)NC(=O)[C@H](CCCNC(=N)N)NC(=O)[C@H](CCCNC(=N)N)NC(=O)[C@H](CC(C)C)NC(=O)[C@@H](N)CO)CSSC[C@@H](C(=O)N[C@@H](CC(N)=O)C(=O)N[C@@H](CO)C(=O)N[C@@H](Cc2ccccc2)C(=O)N[C@@H](CCCNC(=N)N)C(=O)N[C@@H](Cc2ccc(O)cc2)C(=O)O)NC(=O)CNC(=O)[C@H](CC(C)C)NC(=O)CNC(=O)[C@H](CO)NC(=O)[C@H](CCC(N)=O)NC(=O)[C@H](C)NC(=O)CNC1=O [ANP, Atrial natriuretic peptide]
cGMP production (result in words) (NPR-A isoform 1): no cGMP production was observed | cGMP production (result in words) (NPR-A isoform 2): no cGMP production was observed | cGMP production (result in words) (NPR-A isoform 3): no cGMP production was observed | decrease in cGMP production of WT NPR-A ([1]; 1% co-transfection with isoform 1): approximately 10.6% | decrease in cGMP production of WT NPR-A ([1]; 50% co-transfection with isoform 1): 87.4% | decrease in cGMP production of WT NPR-A ([2]; 1% co-transfection with isoform 2): 8.0% | decrease in cGMP production of WT NPR-A ([2]; 10% co-transfection with isoform 2): 69.8% | decrease in cGMP production of WT NPR-A ([2]; 50% co-transfection with isoform 2): 84.1% | decrease in cGMP production of WT NPR-A ([3]; 1% co-transfection with isoform 3): 22.6% | decrease in cGMP production of WT NPR-A ([3]; 10% co-transfection with isoform 3): 54.3% | decrease in cGMP production of WT NPR-A ([3]; 50% co-transfection with isoform 3): 86.2% | reduction in cGMP production (range over isoforms 1 and 2) [4]: 8–10.6% | rate of cGMP production (in words) (NPR-A [5]): produce cGMP much faster than the vasodilatory analogue (DRD-ANP) | binding affinity for NPR-A (in words) (NPR-A [6]): stronger binding affinity than BNP

Source: publication PMC10665444, “Unveiling the potential role of natriuretic peptide receptor a isoforms in fine-tuning the cGMP production and tissue-specific function” (Scientific Reports, 2023)
